Laboratory results published in the supplement of paper PMC10307832.

Columns and labels:
Assay in all cases: relative viability (nuclei count vs DMSO), 5 days (fraction); higher = more cells survive
Tozasertib + Trametinib = compound: Cc1cc(Nc2cc(N3CCN(C)CC3)nc(Sc3ccc(NC(=O)C4CC4)cc3)n2)n[nH]1 [Tozasertib] + CC(=O)Nc1cccc(-n2c(=O)n(C3CC3)c(=O)c3c(Nc4ccc(I)cc4F)n(C)c(=O)c(C)c32)c1 [Trametinib] (partner 0.02 µM)
Summary of the method: (§1)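 Relative viability is defined as nuclei in treated wells over nuclei in vehicle wells. Duplicate plates were run and medians reported. Lung cancer cell lines in 1536-well plates were dosed by pin tool one day after seeding, with one drug or with a fixed anchor-drug dose plus five library-drug doses (not always all listed) in √10 steps, and nuclei were counted after 5 days.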

Tozasertib + Linsitinib = compound: Cc1cc(Nc2cc(N3CCN(C)CC3)nc(Sc3ccc(NC(=O)C4CC4)cc3)n2)n[nH]1 [Tozasertib] + C[C@]1(O)C[C@@H](c2nc(-c3ccc4ccc(-c5ccccc5)nc4c3)c3c(N)nccn32)C1 [Linsitinib] (partner 1 µM)
Summary of the method: as §1

Tozasertib + Phenformin = compound: Cc1cc(Nc2cc(N3CCN(C)CC3)nc(Sc3ccc(NC(=O)C4CC4)cc3)n2)n[nH]1 [Tozasertib] + N=C(N)NC(=N)NCCc1ccccc1 [Phenformin] (partner 250 µM)
Summary of the method: as §1

Tozasertib + AZD7762 = compound: Cc1cc(Nc2cc(N3CCN(C)CC3)nc(Sc3ccc(NC(=O)C4CC4)cc3)n2)n[nH]1 [Tozasertib] + NC(=O)Nc1cc(-c2cccc(F)c2)sc1C(=O)N[C@H]1CCCNC1 [AZD7762] (partner 0.2 µM)
Summary of the method: as §1

Tozasertib + Decitabine = compound: Cc1cc(Nc2cc(N3CCN(C)CC3)nc(Sc3ccc(NC(=O)C4CC4)cc3)n2)n[nH]1 [Tozasertib] + Nc1ncn([C@H]2C[C@H](O)[C@@H](CO)O2)c(=O)n1 [Decitabine] (partner 2 µM)
Summary of the method: as §1

Cell Line | relative viability (Tozasertib + Trametinib; first compound 0.004 µM) | relative viability (Tozasertib + Trametinib; first compound 0.01265 µM) | relative viability (Tozasertib + Trametinib; first compound 0.04 µM) | relative viability (Tozasertib + Trametinib; first compound 0.1265 µM) | relative viability (Tozasertib + Linsitinib; first compound 0.004 µM) | relative viability (Tozasertib + Linsitinib; first compound 0.01265 µM) | relative viability (Tozasertib + Linsitinib; first compound 0.04 µM) | relative viability (Tozasertib + Linsitinib; first compound 0.1265 µM) | relative viability (Tozasertib + Phenformin; first compound 0.004 µM) | relative viability (Tozasertib + Phenformin; first compound 0.01265 µM) | relative viability (Tozasertib + Phenformin; first compound 0.04 µM) | relative viability (Tozasertib + Phenformin; first compound 0.1265 µM) | relative viability (Tozasertib + AZD7762; first compound 0.004 µM) | relative viability (Tozasertib + AZD7762; first compound 0.01265 µM) | relative viability (Tozasertib + AZD7762; first compound 0.04 µM) | relative viability (Tozasertib + AZD7762; first compound 0.1265 µM) | relative viability (Tozasertib + Decitabine; first compound 0.004 µM) | relative viability (Tozasertib + Decitabine; first compound 0.01265 µM) | relative viability (Tozasertib + Decitabine; first compound 0.04 µM) | relative viability (Tozasertib + Decitabine; first compound 0.1265 µM)
201T | 0.707 | 0.705 | 0.759 | 0.71 | 1.02 | 0.955 | 1.08 | 1.04 | 0.496 | 0.432 | 0.448 | 0.415 | 0.549 | 0.63 | 0.581 | 0.75 | 0.854 | 0.844 | 0.874 | 0.83
A-427 | 0.783 | 0.68 | 0.818 | 0.509 | 1.16 | 0.996 | 1.12 | 0.826 | 0.332 | 0.31 | 0.328 | 0.169 | 0.796 | 0.799 | 0.715 | 0.409 | 0.563 | 0.528 | 0.627 | 0.426
ABC-1 |  |  |  |  | 0.831 |  | 0.554 | 0.767 | 0.218 | 0.202 | 0.261 | 0.172 | 1.01 | 0.789 |  | 1.16 | 0.989 | 1.03 | 0.539 | 0.44
BEN | 1.03 | 1.02 |  | 0.961 | 1.08 | 0.948 | 0.927 | 0.85 | 0.277 | 0.253 | 0.296 | 0.252 | 0.761 | 0.678 |  | 0.532 | 0.739 | 0.688 | 0.755 | 0.501
CAL-12T | 0.439 | 0.27 | 0.445 | 0.219 | 0.857 | 0.804 | 0.793 | 0.64 | 0.669 | 0.499 | 0.529 | 0.272 | 0.563 | 0.553 | 0.545 | 0.494 |  |  |  | 
COR-L23 | 0.613 | 0.599 | 0.609 | 0.332 | 0.99 | 0.906 | 0.846 | 0.39 | 0.44 | 0.425 | 0.407 | 0.176 |  |  |  |  | 0.42 | 0.384 | 0.439 | 0.247
COR-L 105 | 0.436 | 0.393 | 0.461 | 0.329 | 1.15 | 1.15 | 1.02 | 0.868 | 0.501 | 0.46 | 0.483 | 0.275 |  |  |  |  | 0.717 | 0.61 | 0.69 | 0.558
ChaGo-K-1 | 0.879 | 0.838 | 0.895 | 0.736 |  |  |  |  | 0.528 | 0.456 | 0.562 | 0.289 | 0.902 | 0.851 | 0.859 | 0.576 | 0.506 | 0.463 | 0.49 | 0.446
EKVX | 0.369 | 0.301 | 0.339 | 0.422 | 0.812 | 0.975 | 1.18 | 0.913 | 0.256 | 0.212 | 0.23 | 0.222 | 0.703 | 0.584 | 0.572 | 0.236 | 0.265 | 0.345 | 0.354 | 0.316
EMC-BAC-2 | 0.873 | 0.826 | 0.928 |  | 0.867 | 0.79 |  | 0.611 | 0.486 | 0.513 | 0.518 | 0.357 | 1.15 | 1.12 | 0.93 | 0.47 | 0.977 | 0.86 | 0.918 | 0.58
EPLC-272H | 0.263 | 0.308 | 0.32 | 0.259 | 1.13 | 1.18 | 1.12 |  | 0.307 | 0.337 | 0.256 | 0.275 | 0.147 | 0.249 | 0.192 | 0.301 | 0.369 | 0.325 | 0.368 | 0.318
H3255 | 0.578 | 0.618 | 0.552 | 0.659 | 0.862 | 0.758 | 1.04 | 0.817 | 0.291 | 0.396 | 0.379 | 0.353 | 0.837 | 0.786 | 0.884 | 0.684 | 0.71 | 0.475 | 0.592 | 0.558
HARA | 0.63 | 0.565 | 0.608 | 0.283 | 1 |  | 1.01 | 0.374 | 0.365 | 0.44 | 0.493 | 0.444 | 0.353 | 0.247 | 0.209 | 0.123 | 0.495 | 0.486 | 0.572 | 0.203
HCC-15 | 0.386 | 0.359 | 0.405 | 0.375 | 0.893 | 0.778 | 0.882 | 0.734 | 0.504 | 0.477 | 0.5 | 0.341 | 1.49 | 1.06 | 1.26 | 0.964 | 0.66 | 0.496 | 0.64 | 0.339
HCC-44 |  | 1.03 | 1.22 | 1 | 0.653 | 0.606 | 0.691 | 0.546 | 0.184 | 0.251 | 0.184 | 0.104 | 1.05 | 0.994 | 0.929 | 0.845 | 0.935 | 0.917 | 0.87 | 0.766
HCC-78 | 0.821 | 0.478 | 0.824 | 0.632 | 0.661 | 0.452 | 0.588 | 0.439 | 0.957 | 0.608 | 0.699 | 0.525 | 0.806 | 0.519 | 0.668 | 0.477 | 0.746 | 0.598 | 0.763 | 0.595
HCC-366 | 0.304 | 0.323 | 0.385 | 0.15 | 0.766 | 0.6 | 0.755 | 0.101 | 0.629 | 0.56 | 0.661 | 0.651 | 0.355 | 0.282 | 0.337 | 0.203 | 0.32 | 0.314 | 0.314 | 0.169
